The test has as its system MV-4-11 cells. Kind of test: Gene expression microarray analysis (Affymetrix PrimeView) and GSEA. The format is cell-based, human. On the set-up: RFU PODN (11730768_x_at) / Fold change /veh PODN (11730768_x_at) / RFU LINC00158 (11744669_a_at) / Fold change /veh LINC00158 (11744669_a_at) / RFU DUSP10 (11751237_a_at) / Fold change /veh DUSP10 (11751237_a_at) / RFU ID3 (11757404_x_at) / Fold change /veh ID3 (11757404_x_at) / RFU PLEKHG5 (11737974_s_at) / Fold change /veh PLEKHG5 (11737974_s_at) / RFU LRRC4B (11730491_at) / Fold change /veh LRRC4B (11730491_at) / RFU GIMAP4 (11747438_a_at) / Fold change /veh GIMAP4 (11747438_a_at) / RFU KRT8 (11758183_x_at) / Fold change /veh KRT8 (11758183_x_at) / RFU CNN1 (11734310_a_at) / Fold change /veh CNN1 (11734310_a_at) / RFU VPS37D (11726825_at) / Fold change /veh VPS37D (11726825_at) / RFU C10orf10 (11716522_x_at) / Fold change /veh C10orf10 (11716522_x_at) / RFU KIR2DL2 /// KIR2DL4 /// KIR2DL5A /// KIR2DL5B /// KIR2DS1 /// KIR2DS2 /// KIR2DS3 /// KIR2DS4 /// KIR3DL3 /// KIR3DL3 /// KIR3DS1 (11738374_at) / Fold change /veh KIR2DL2 /// KIR2DL4 /// KIR2DL5A /// KIR2DL5B /// KIR2DS1 /// KIR2DS2 /// KIR2DS3 /// KIR2DS4 /// KIR3DL3 /// KIR3DL3 /// KIR3DS1 (11738374_at) / RFU C1QL1 (11718748_at) / Fold change /veh C1QL1 (11718748_at) / RFU TMPRSS4 (11747572_a_at) / Fold change /veh TMPRSS4 (11747572_a_at) / RFU HAMP (11756126_x_at) / Fold change /veh HAMP (11756126_x_at) / RFU RNFT2 (11725882_a_at) / Fold change /veh RNFT2 (11725882_a_at) / RFU NR4A2 (11747474_a_at) / Fold change /veh NR4A2 (11747474_a_at) / RFU ABCC12 (11746883_a_at) / Fold change /veh ABCC12 (11746883_a_at) / RFU TMEM136 (11760407_x_at) / Fold change /veh TMEM136 (11760407_x_at) / RFU CLDN22 /// WWC2 (11732394_at) / Fold change /veh CLDN22 /// WWC2 (11732394_at) / RFU HLA-DPB1 (11760878_x_at) / Fold change /veh HLA-DPB1 (11760878_x_at) / RFU SPINT1 (11716480_a_at) / Fold change /veh SPINT1 (11716480_a_at) / RFU GAP43 (11754022_s_at) / Fold change /veh GAP43 (11754022_s_at) / RFU A4GNT (11735810_at) / Fold change /veh A4GNT (11735810_at) / RFU PRB3 (11715151_x_at) / Fold change /veh PRB3 (11715151_x_at) / RFU TUBB4B (11761932_at) / Fold change /veh TUBB4B (11761932_at) / RFU CAPN14 (11732068_a_at) / Fold change /veh CAPN14 (11732068_a_at) / RFU TMCC2 (11721928_a_at) / Fold change /veh TMCC2 (11721928_a_at) / RFU IRGQ (11745062_a_at) / Fold change /veh IRGQ (11745062_a_at) / RFU FAM174B (11720279_a_at) / Fold change /veh FAM174B (11720279_a_at) / RFU TMPRSS4 (11748680_a_at) / Fold change /veh TMPRSS4 (11748680_a_at) / RFU FAM212B (11763350_a_at) / Fold change /veh FAM212B (11763350_a_at) / RFU PLEKHG5 (11743358_a_at) / Fold change /veh PLEKHG5 (11743358_a_at) / RFU ZSCAN30 (11745921_a_at) / Fold change /veh ZSCAN30 (11745921_a_at) / RFU CMKLR1 (11741424_a_at) / Fold change /veh CMKLR1 (11741424_a_at) / RFU LOC101060620 /// MAPK8IP1 (11723275_at) / Fold change /veh LOC101060620 /// MAPK8IP1 (11723275_at) / RFU SPTSSB (11747773_x_at) / Fold change /veh SPTSSB (11747773_x_at) / RFU PRSS12 (11739890_at) / Fold change /veh PRSS12 (11739890_at) / RFU BIN1 (11741810_x_at) / Fold change /veh BIN1 (11741810_x_at) / RFU WNT11 (11732464_a_at) / Fold change /veh WNT11 (11732464_a_at) / RFU C10orf10 (11716521_a_at) / Fold change /veh C10orf10 (11716521_a_at) / RFU C5orf56 (11738089_at) / Fold change /veh C5orf56 (11738089_at) / RFU CYB561 (11721691_x_at) / Fold change /veh CYB561 (11721691_x_at) / RFU ANKRD19P (11752326_a_at) / Fold change /veh ANKRD19P (11752326_a_at) / RFU OR2T12 /// OR2T33 /// OR2T8 (11738714_s_at) / Fold change /veh OR2T12 /// OR2T33 /// OR2T8 (11738714_s_at) / RFU VCAN (11748164_a_at) / Fold change /veh VCAN (11748164_a_at) / RFU JSRP1 (11732532_at) / Fold change /veh JSRP1 (11732532_at) / RFU KRTAP10-11 (11738290_x_at) / Fold change /veh KRTAP10-11 (11738290_x_at) / RFU MYO3A (11730013_a_at) / Fold change /veh MYO3A (11730013_a_at) / RFU EBF3 (11725865_a_at) / Fold change /veh EBF3 (11725865_a_at) / RFU CAMK2N1 (11719241_x_at) / Fold change /veh CAMK2N1 (11719241_x_at) / RFU C5orf56 (11738088_a_at) / Fold change /veh C5orf56 (11738088_a_at) / RFU OLFML3 (11715873_a_at) / Fold change /veh OLFML3 (11715873_a_at) / RFU LOC100653217 /// NTM (11731650_a_at) / Fold change /veh LOC100653217 /// NTM (11731650_a_at) / RFU MAPK11 (11762145_a_at) / Fold change /veh MAPK11 (11762145_a_at) / RFU FIZ1 (11724087_x_at) / Fold change /veh FIZ1 (11724087_x_at) / RFU OASL (11726364_x_at) / Fold change /veh OASL (11726364_x_at) / RFU SOX15 (11748057_x_at) / Fold change /veh SOX15 (11748057_x_at) / RFU CD79A (11719716_a_at) / Fold change /veh CD79A (11719716_a_at) / RFU HIST1H1D (11736915_at) / Fold change /veh HIST1H1D (11736915_at) / RFU CASKIN2 (11723855_a_at) / Fold change /veh CASKIN2 (11723855_a_at) / RFU LOC730098 (11760151_x_at) / Fold change /veh LOC730098 (11760151_x_at) / RFU OR4N2 (11742367_at) / Fold change /veh OR4N2 (11742367_at) / RFU PRRT2 (11749266_a_at) / Fold change /veh PRRT2 (11749266_a_at) / RFU SNX32 (11753110_a_at) / Fold change /veh SNX32 (11753110_a_at) / RFU CDHR5 (11726645_a_at) / Fold change /veh CDHR5 (11726645_a_at) / RFU RCAN1 (11760418_a_at) / Fold change /veh RCAN1 (11760418_a_at) / RFU FAM167A (11723789_a_at) / Fold change /veh FAM167A (11723789_a_at) / RFU FAM26E (11764081_at) / Fold change /veh FAM26E (11764081_at) / RFU ISYNA1 (11749810_s_at) / Fold change /veh ISYNA1 (11749810_s_at) / RFU ACY1 (11761880_at) / Fold change /veh ACY1 (11761880_at) / RFU 11764098_at / Fold change /veh 11764098_at / RFU SAMD14 (11745864_x_at) / Fold change /veh SAMD14 (11745864_x_at) / RFU NPB (11741838_a_at) / Fold change /veh NPB (11741838_a_at) / RFU TMPRSS6 (11731388_a_at) / Fold change /veh TMPRSS6 (11731388_a_at) / RFU KRTAP10-2 (11738614_at) / Fold change /veh KRTAP10-2 (11738614_at) / RFU ARHGAP8 /// PRR5-ARHGAP8 (11727945_x_at) / Fold change /veh ARHGAP8 /// PRR5-ARHGAP8 (11727945_x_at) / RFU KRTAP5-7 /// NADSYN1 (11734609_at) / Fold change /veh KRTAP5-7 /// NADSYN1 (11734609_at) / RFU RASL12 (11751679_a_at) / Fold change /veh RASL12 (11751679_a_at) / RFU CDKN2B (11736163_a_at) / Fold change /veh CDKN2B (11736163_a_at) / RFU PRF1 (11729649_at) / Fold change /veh PRF1 (11729649_at) / RFU, ZNF638 /// ZNF638-IT1 / Fold change vs veh, ZNF638 /// ZNF638-IT1 / RFU, PANK3 / Fold change vs veh, PANK3 / RFU, SH3YL1 / Fold change vs veh, SH3YL1 / RFU, ZEB2 / Fold change vs veh, ZEB2 / RFU, NRIP1 / Fold change vs veh, NRIP1 / RFU, PTTG1IP / Fold change vs veh, PTTG1IP / RFU, CAPN2 / Fold change vs veh, CAPN2 / RFU, MED14 / Fold change vs veh, MED14 / RFU, SNORA58 / Fold change vs veh, SNORA58 / RFU, C1orf63 / Fold change vs veh, C1orf63 / RFU, LRRFIP1 / Fold change vs veh, LRRFIP1 / RFU, NDUFAF7 / Fold change vs veh, NDUFAF7 / RFU, SLC12A2 / Fold change vs veh, SLC12A2 / RFU, IBTK / Fold change vs veh, IBTK / RFU, ESF1 / Fold change vs veh, ESF1 / Fold change vs veh, TMEM50B / RFU, TAOK1 / Fold change vs veh, TAOK1 / RFU, ACBD3 / Fold change vs veh, ACBD3 / RFU, TMA16 / Fold change vs veh, TMA16 / RFU, RWDD3 / Fold change vs veh, RWDD3 / RFU, BCAT1 / Fold change vs veh, BCAT1 / RFU, EDEM3 / Fold change vs veh, EDEM3 / RFU, TMEM33 / Fold change vs veh, TMEM33 / RFU, WDR75 / Fold change vs veh, WDR75 / RFU, AHCTF1 / Fold change vs veh, AHCTF1 / RFU, TFRC / Fold change vs veh, TFRC / RFU, ZDHHC17 / Fold change vs veh, ZDHHC17 / RFU, NOM1 / Fold change vs veh, NOM1 / RFU, ARL8B / Fold change vs veh, ARL8B / RFU, ZBTB11 / Fold change vs veh, ZBTB11 / RFU, TAMM41 / Fold change vs veh, TAMM41 / RFU, KIAA1704 /// LOC100996395 / Fold change vs veh, KIAA1704 /// LOC100996395 / RFU, ING1 / Fold change vs veh, ING1 / RFU, TRMT61B / Fold change vs veh, TRMT61B / RFU, FUBP3 / Fold change vs veh, FUBP3 / RFU, TP53 / Fold change vs veh, TP53 / RFU, TNKS2 / Fold change vs veh, TNKS2 / RFU, ZFP14 / Fold change vs veh, ZFP14 / RFU, ACTR2 / Fold change vs veh, ACTR2 / RFU, PPP3R1 / Fold change vs veh, PPP3R1 / RFU, PIK3R1 / Fold change vs veh, PIK3R1 / RFU, HNRNPA1 / Fold change vs veh, HNRNPA1 / RFU, RNF170 / Fold change vs veh, RNF170 / RFU, ZNF28 / Fold change vs veh, ZNF28 / RFU, RNGTT / Fold change vs veh, RNGTT / RFU, OGT / Fold change vs veh, OGT / RFU, BRD1 / Fold change vs veh, BRD1 / RFU, MARS / Fold change vs veh, MARS / RFU, ZNF655 / Fold change vs veh, ZNF655 / RFU, FAHD1 / Fold change vs veh, FAHD1 / RFU, BDP1 / Fold change vs veh, BDP1 / RFU, LRRCC1 / Fold change vs veh, LRRCC1 / RFU, ARID1A / Fold change vs veh, ARID1A / RFU, ZNF146 / Fold change vs veh, ZNF146 / RFU, ZNF330 / Fold change vs veh, ZNF330 / RFU, GPN3 / Fold change vs veh, GPN3 / RFU, C9orf123 / Fold change vs veh, C9orf123 / RFU, N4BP2L2 / Fold change vs veh, N4BP2L2 / RFU, ARFIP1 / Fold change vs veh, ARFIP1 / RFU, FAM179B / Fold change vs veh, FAM179B / RFU, BCL10 / Fold change vs veh, BCL10 / RFU, UHRF1BP1L / Fold change vs veh, UHRF1BP1L / RFU, BET1 / Fold change vs veh, BET1 / RFU, CNOT2 / Fold change vs veh, CNOT2 / RFU, ZNF268 / Fold change vs veh, ZNF268 / Fold change vs veh, ZNF507 / RFU, DGCR2 / Fold change vs veh, DGCR2 / RFU, WDSUB1 / Fold change vs veh, WDSUB1 / Fold change vs veh, HSP90B1 /// MIR3652 / RFU, ADSS / Fold change vs veh, ADSS / RFU, GK / Fold change vs veh, GK / RFU, ZNF148 / Fold change vs veh, ZNF148 / RFU, TAF9 / Fold change vs veh, TAF9 / RFU, SLC1A5 / Fold change vs veh, SLC1A5 / RFU, SLMO2 / Fold change vs veh, SLMO2 / RFU, ABCC4 / Fold change vs veh, ABCC4 / RFU, LOC101060439 /// RAP1B / Fold change vs veh, LOC101060439 /// RAP1B / RFU, RFX7 / Fold change vs veh, RFX7 / RFU, GTPBP10 / Fold change vs veh, GTPBP10 / RFU, CNEP1R1 / Fold change vs veh, CNEP1R1 / RFU, BIVM-ERCC5 /// ERCC5 / Fold change vs veh, BIVM-ERCC5 /// ERCC5 / RFU, ILF3 / Fold change vs veh, ILF3 / RFU 11762660_at / Fold change /veh 11762660_at / RFU VCAN (11757783_s_at) / Fold change /veh VCAN (11757783_s_at) / RFU DDX43 (11728927_at) / Fold change /veh DDX43 (11728927_at) / RFU KRT8 (11758188_x_at) / Fold change /veh KRT8 (11758188_x_at) / RFU NKD1 (11759106_at) / Fold change /veh NKD1 (11759106_at) / RFU SRD5A1 (11742802_a_at) / Fold change /veh SRD5A1 (11742802_a_at) / RFU TPSAB1 /// TPSB2 (11721975_s_at) / Fold change /veh TPSAB1 /// TPSB2 (11721975_s_at) / RFU GSTM3 (11746129_a_at) / Fold change /veh GSTM3 (11746129_a_at) / RFU IL23R (11737362_x_at) / Fold change /veh IL23R (11737362_x_at) / RFU TMEM51 (11727254_a_at) / Fold change /veh TMEM51 (11727254_a_at) / RFU PIWIL2 (11732686_x_at) / Fold change /veh PIWIL2 (11732686_x_at) / RFU ORM1 (11744905_x_at) / Fold change /veh ORM1 (11744905_x_at) / RFU CCDC152 (11743942_at) / Fold change /veh CCDC152 (11743942_at) / RFU ECM1 (11717891_a_at) / Fold change /veh ECM1 (11717891_a_at) / RFU IL23R (11748794_a_at) / Fold change /veh IL23R (11748794_a_at) / RFU TNFAIP8L3 (11732012_x_at) / Fold change /veh TNFAIP8L3 (11732012_x_at) / RFU MBOAT4 (11741988_at) / Fold change /veh MBOAT4 (11741988_at) / RFU 11764193_at / Fold change /veh 11764193_at / RFU TMEM53 (11763286_at) / Fold change /veh TMEM53 (11763286_at) / RFU MAGEB2 (11727129_at) / Fold change /veh MAGEB2 (11727129_at) / RFU TMEM200A (11744735_a_at) / Fold change /veh TMEM200A (11744735_a_at) / RFU CCDC152 (11751479_a_at) / Fold change /veh CCDC152 (11751479_a_at) / RFU FAM211A (11726209_a_at) / Fold change /veh FAM211A (11726209_a_at) / RFU RGS16 (11746705_a_at) / Fold change /veh RGS16 (11746705_a_at) / RFU VCAN (11755009_s_at) / Fold change /veh VCAN (11755009_s_at) / RFU RHOB (11743442_s_at) / Fold change /veh RHOB (11743442_s_at) / RFU RGS16 (11720943_a_at) / Fold change /veh RGS16 (11720943_a_at) / RFU RGS16 (11720944_at) / Fold change /veh RGS16 (11720944_at) / RFU, VPS4B / Fold change vs veh, VPS4B / RFU, CREB1 / Fold change vs veh, CREB1 / RFU, DNAJC13 / Fold change vs veh, DNAJC13 / RFU, GNAQ / Fold change vs veh, GNAQ / RFU, CDK5R1 / Fold change vs veh, CDK5R1 / RFU, ZRANB3 / Fold change vs veh, ZRANB3 / RFU, CUL4A / Fold change vs veh, CUL4A / RFU, CCNY / Fold change vs veh, CCNY / RFU, UFL1 / Fold change vs veh, UFL1 / RFU, COG3 / Fold change vs veh, COG3 / RFU, DIAPH2 / Fold change vs veh, DIAPH2 / RFU, SKA2 / Fold change vs veh, SKA2 / RFU, AFF3 / Fold change vs veh, AFF3 / RFU, LMF1 / Fold change vs veh, LMF1 / RFU, IPO11 / Fold change vs veh, IPO11 / RFU, DFFB / Fold change vs veh, DFFB / RFU, FOXP1 / Fold change vs veh, FOXP1 / RFU, CARD8 / Fold change vs veh, CARD8 / RFU, STRN3 / Fold change vs veh, STRN3 / RFU, ADK / Fold change vs veh, ADK / RFU, RASSF2 / Fold change vs veh, RASSF2 / RFU, WIPF1 / Fold change vs veh, WIPF1 / RFU, LARP1B / Fold change vs veh, LARP1B / RFU, RASA1 / Fold change vs veh, RASA1 / RFU, RB1 / Fold change vs veh, RB1 / RFU, PPFIA1 / Fold change vs veh, PPFIA1 / RFU, MAT2A / Fold change vs veh, MAT2A / RFU, CCT5 / Fold change vs veh, CCT5 / RFU, WDR92 / Fold change vs veh, WDR92 / RFU, CUX1 / Fold change vs veh, CUX1 / RFU, TTC7A / Fold change vs veh, TTC7A / RFU, TMEM135 / Fold change vs veh, TMEM135 / RFU, DEPTOR / Fold change vs veh, DEPTOR / RFU, CPM / Fold change vs veh, CPM / RFU, DNAJB6 / Fold change vs veh, DNAJB6 / RFU, CACNA2D3 / Fold change vs veh, CACNA2D3 / RFU, DTX4 / Fold change vs veh, DTX4 / RFU, TFCP2 / Fold change vs veh, TFCP2 / RFU, GMCL1 /// GMCL1P1 / Fold change vs veh, GMCL1 /// GMCL1P1 / RFU, AEBP2 / Fold change vs veh, AEBP2 / RFU, SNHG1 /// SNORD22 /// SNORD25 /// SNORD26 /// SNORD27 /// SNORD28 /// SNORD29 /// SNORD31 / Fold change vs veh, SNHG1 /// SNORD22 /// SNORD25 /// SNORD26 /// SNORD27 /// SNORD28 /// SNORD29 /// SNORD31 / Fold change (Aza/veh), C12orf56 (ProbeSet 11735607_a_at) / Fold change (ACY-1035/veh), C12orf56 (ProbeSet 11735607_a_at) / Fold change (Aza/veh), FGFR1OP (ProbeSet 11751329_s_at) / Fold change (ACY-1035/veh), FGFR1OP (ProbeSet 11751329_s_at) / Fold change (Aza/veh), VPS36 (ProbeSet 11739960_a_at) / Fold change (ACY-1035/veh), VPS36 (ProbeSet 11739960_a_at) / RFU SYPL1 (11715823_x_at) / Fold change /veh SYPL1 (11715823_x_at) / RFU IGFBP7 (11715501_s_at) / Fold change /veh IGFBP7 (11715501_s_at) / RFU REEP3 (11722064_at) / Fold change /veh REEP3 (11722064_at) / RFU IGLL1 (11728026_x_at) / Fold change /veh IGLL1 (11728026_x_at): dose or concentration left out as unconfirmed. The note with it: ProbeSet 11755070_a_at; LIST D.

Experimental findings from PMC5218480 (PLoS ONE, 2017) are described below.

For `Nc1ncn([C@@H]2O[C@H](CO)[C@@H](O)[C@H]2O)c(=O)n1` [azacitidine], the “RFU, CARD8” value was 161.67 RFU.
